The values that follow are results of earlier work, collected in patent US6034286A, “Processes for producing saturated alcohols” (Union Carbide Chemicals & Plastics Technology Corporation, priority 1997, dated 2000).

SMILES strings stand for the structures.

The conditions of data set [1]: Table I, organophosphorus ligand.
For data set [2] the following is noted: Table II, promoter; approximate values.

As to `c1ccc(P(c2ccccc2)c2ccccc2)cc1` [Triphenylphosphine], in data set [1], the pKb (commonly the Kb on a negative log10 scale, so that one unit is a factor of ten) is 2.74.

With `N#CCC#N` [CNCH2 CN], the pKa (in general, the pH at which an ionisable group is half protonated) in data set [2] is 11.
